pEC50, pIC50: −log10 of the molar value. Some results are limits rather than exact numbers.

Data on five compounds can be found in US20080108574A1, “MELANOCORTIN RECEPTOR MEDIATED MODULATION OF NEUROGENESIS” (BrainCells, Inc., priority 2006, published 2008).

For one experiment, the system named is KA iGlu receptors. The conditions noted are these: cited from earlier work.
In a further experiment the test system is AMPA iGlu receptors. The conditions noted are these: cited from earlier work.
The test system of a further experiment is NMDA iGlu receptors. The conditions noted are these: cited from earlier work.
In the next experiment the target is human mGlu3 (Homo sapiens, UniProt Q14832). The conditions noted are these: in vitro, agonist; read-out: EC50 against human mGlu3 receptors; cited from earlier work.
Sequence of human mGlu3 (Q14832 23-879): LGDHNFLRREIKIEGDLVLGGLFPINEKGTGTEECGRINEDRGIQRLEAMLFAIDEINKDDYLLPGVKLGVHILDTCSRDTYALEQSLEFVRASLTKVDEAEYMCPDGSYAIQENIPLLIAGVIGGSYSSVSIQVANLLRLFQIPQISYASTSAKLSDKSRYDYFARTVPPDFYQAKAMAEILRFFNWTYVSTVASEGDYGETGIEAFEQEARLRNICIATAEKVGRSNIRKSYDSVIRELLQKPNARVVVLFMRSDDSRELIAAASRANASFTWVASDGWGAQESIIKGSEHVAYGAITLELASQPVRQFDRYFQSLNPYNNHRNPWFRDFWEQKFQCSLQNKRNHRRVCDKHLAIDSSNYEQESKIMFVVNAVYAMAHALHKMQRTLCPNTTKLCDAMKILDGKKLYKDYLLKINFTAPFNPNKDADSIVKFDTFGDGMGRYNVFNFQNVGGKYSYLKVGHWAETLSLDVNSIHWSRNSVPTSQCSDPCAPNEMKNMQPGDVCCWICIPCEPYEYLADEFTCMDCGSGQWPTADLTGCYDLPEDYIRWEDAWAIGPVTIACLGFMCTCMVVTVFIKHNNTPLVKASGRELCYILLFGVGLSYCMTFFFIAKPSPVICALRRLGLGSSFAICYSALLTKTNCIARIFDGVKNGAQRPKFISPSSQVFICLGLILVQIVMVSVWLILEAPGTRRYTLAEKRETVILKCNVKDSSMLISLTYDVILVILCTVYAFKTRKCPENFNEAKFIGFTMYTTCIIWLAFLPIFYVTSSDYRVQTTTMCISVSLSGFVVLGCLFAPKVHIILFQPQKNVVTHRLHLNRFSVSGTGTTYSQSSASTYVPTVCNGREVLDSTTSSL
Another experiment addresses human mGlu2 (Homo sapiens, UniProt Q14416). The conditions noted are these: in vitro, agonist; read-out: EC50 against human mGlu2 receptors; cited from earlier work.
The target of a further experiment is mGluR2 (Homo sapiens, UniProt Q14416). The conditions noted are these: read-out: IC50 against mGluR2; cited from earlier work.
Sequence of mGluR2 (Q14416 19-872): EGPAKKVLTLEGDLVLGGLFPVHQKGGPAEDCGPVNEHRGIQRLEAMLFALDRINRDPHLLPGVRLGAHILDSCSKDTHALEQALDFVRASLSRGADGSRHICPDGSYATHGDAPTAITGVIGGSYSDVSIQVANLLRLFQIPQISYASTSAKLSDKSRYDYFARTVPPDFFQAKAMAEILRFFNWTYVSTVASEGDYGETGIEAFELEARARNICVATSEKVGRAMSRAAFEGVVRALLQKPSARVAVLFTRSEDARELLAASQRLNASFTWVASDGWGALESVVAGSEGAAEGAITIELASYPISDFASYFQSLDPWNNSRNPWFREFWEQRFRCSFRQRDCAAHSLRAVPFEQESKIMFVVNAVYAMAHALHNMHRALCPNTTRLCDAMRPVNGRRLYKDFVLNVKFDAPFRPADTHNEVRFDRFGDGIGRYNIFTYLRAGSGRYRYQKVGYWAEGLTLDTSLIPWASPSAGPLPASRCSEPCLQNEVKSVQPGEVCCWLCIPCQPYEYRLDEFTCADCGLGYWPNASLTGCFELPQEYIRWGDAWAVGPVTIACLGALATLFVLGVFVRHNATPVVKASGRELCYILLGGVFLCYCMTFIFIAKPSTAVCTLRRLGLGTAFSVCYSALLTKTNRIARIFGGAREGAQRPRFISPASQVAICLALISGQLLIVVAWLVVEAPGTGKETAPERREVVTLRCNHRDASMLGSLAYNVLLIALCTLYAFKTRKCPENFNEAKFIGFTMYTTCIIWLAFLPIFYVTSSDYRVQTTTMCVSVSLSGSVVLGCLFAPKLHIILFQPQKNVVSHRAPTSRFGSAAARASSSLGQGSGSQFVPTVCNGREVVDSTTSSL
Another experiment concerns Group I receptors. The conditions noted are these: sub-mM concentrations; cited from earlier work.
The next experiment concerns the target mGluR3 (Homo sapiens, UniProt Q14832). The conditions noted are these: read-out: IC50 against mGluR3; cited from earlier work.
For a further experiment, the system named is Group III receptors. The conditions noted are these: sub-mM concentrations; cited from earlier work.
In experiment [1] the test system is human neural stem cells (hNSCs). As for the experimental part: In one non-limiting example neurogenesis, a neurogenic response, and neurodifferentiation are all measured in an in vitro assay as follows. […] Mitogen-free test media with a positive control is used for neuronal differentiation, and basal media without growth factors serves as a negative control. Neurogenesis is determined, for example, by measuring the proliferation and/or differentiation of the hNSCs in the presence of varying concentrations of test compound compared to the absence of the test compound (negative control). […] Neurodifferentiation is measured, for example, by detecting neurodifferentiation specific expression markers which methods are known in the art.
(§1) A positive control for neuronal differentiation was used along with basal media without growth factors as a negative control.
as §1

Sequence of human mGlu2 (Q14416 19-872): as above
Sequence of mGluR3 (Q14832 23-879): as the sequence (Q14832 23-879) above

Consider `N[C@](CC1c2ccccc2Oc2ccccc21)(C(=O)O)[C@H]1C[C@@H]1C(=O)O` [LY341495, (2S)-2-amino-2-(1S,2S-2-carboxycycloprop-1-yl)-3-(xanth-9-yl)propanoic acid], for which, in the experiment with KA iGlu receptors, the “activity against KA iGlu receptors” value was “substantially inactive”. For the same compound, the “activity against AMPA iGlu receptors” value in the experiment with AMPA iGlu receptors is “substantially inactive”. Besides, the “activity against NMDA iGlu receptors” value with NMDA iGlu receptors was “substantially inactive”.
With `N[C@@]1(C(=O)O)CO[C@H]2[C@H](C(=O)O)[C@H]21` [LY379268, (−)-2-Oxa-4-aminobicyclohexane-4,6-dicarboxylic acid], the pEC50 on human mGlu3 and on human mGlu2 was over 8.00 in each case.
`NC1(C(=O)O)CCc2cc(P(=O)(O)O)ccc21` (racemic) [APICA, (RS)-1-amino-5-phosphonoindan-1-carboxylic acid]: the pIC50 on mGluR2 and at mGluR3 was about 4.52 each time. In addition, in the experiment with Group I receptors, the “activity against Group I receptors” value is reported as “no appreciable activity”. Further, the “activity against Group III receptors” value with Group III receptors is given as “no appreciable activity”.
For the compound `Clc1ccc2c(c1)N=C(N1CCNCC1)c1ccccc1N2` [N-desmethylclozapine], the neurogenic activity result in experiment [1] (in assays as disclosed herein) is listed as “highly neurogenic”.
Turning to `CCCC[C@H](NC(C)=O)C(=O)N[C@H]1CC(=O)NCCCC[C@@H](C(=O)O)NC(=O)[C@H](Cc2c[nH]c3ccccc23)NC(=O)[C@H](CCCNC(=N)N)NC(=O)[C@@H](Cc2ccccc2)NC(=O)[C@H](Cc2c[nH]cn2)NC1=O` [PT-141, bremelanotide], the “effect on neuronal differentiation” value in [1] (hNSCs, dose response, TUJ-1 staining) is listed as “promoted neuronal differentiation”. The negative logarithm of the EC50 (pEC50) in experiment [1] (read-out: EC50, neuronal differentiation, hNSCs, percent of neuronal positive control, basal media values subtracted) was 6.70.

Broadly, the pEC50 is the EC50 on a negative log10 scale, so that one unit is a factor of ten. As a reminder, the pIC50 is the IC50 on a negative log10 scale, so that one unit is a factor of ten.
